Publication PMC6563049, “Radiosynthesis of (R,S)‐[^18F]GE387: A Potential PET Radiotracer for Imaging Translocator Protein 18 kDa (TSPO) with Low Binding Sensitivity to the Human Gene Polymorphism rs6971” (Chemmedchem, 2019)
Read-outs that look alike come from different tables or passages of the source.

Assays:
[1] = tested on: TSPO A147T; experiment: Radioligand ([^3H]1) displacement binding on membranes of HEK cells stably transfected with A147T TSPO; design: species or system human; settings: for Ratio LAB/HAB: Ki at A147T TSPO / Ki at wild-type TSPO
Procedure: (§1) Binding affinities were measured as per our published protocol.21 Briefly, an Ultra‐Turrax homogeniser was used to prepare membranes from HEK cells stably transfected with wild‐type and A147T TSPO. […] Reactions were terminated by filtration through a 96‐well glass‐fibre filter plate (Millipore), and washed eight times with ice‐cold 50 mM Tris⋅HCl. […] Data were analysed using GraphPad Prism 6.0, and a four‐parameter nonlinear regression curve fit was used to calculate K i values. Data are expressed as the mean±SEM from at least three independent experiments.

[2] = In vivo PET imaging of the brain in healthy rats; settings: healthy male Wistar rats, i.v. tracer injection, 60 min acquisition, n=2
Procedure: The time–activity curve indicates distribution of radioactivity in the brain, albeit in a modest amount as the investigated animals were healthy.
Male Wistar rats (n=2; weight: 230 and 302 g) were obtained from Charles River Laboratories, UK. The rats were housed in Techniplast 2000P IVC cages on a layer of Aspen bedding in a room with constant temperature (21±2 °C) and fixed 12 h light–dark regime (lights on at 7:00 am). Food and water were available ad libitum. After arrival, the rats were allowed to acclimatise for at least seven days. This research was regulated under the Animals (Scientific Procedures) Act 1986 Amendment Regulations 2012 following ethical review by the University of Cambridge Animal Welfare and Ethical Review Body (AWERB).
Prior to scanning, the animals were anaesthetised using isofluorane at a concentration of 5 % in O2, and anaesthesia was maintained at 1.5–2.5 % isofluorane in O2. The femoral vein was cannulated for tracer injection. […]
Three‐dimensional regions of interest (ROIs) were drawn over the whole brain on an MRI template using PMOD software (version 3.2; PMOD technologies, Zurich, Switzerland). […] The results were expressed as dimensionless standardised uptake values (SUV=[(tissue activity)×(body weight)]/injected dose). SUVs were calculated assuming a specific gravity of 1 g mL^−1 for brain tissue.

[3] = target: rat heart TSPO; design: method as in earlier work; settings: read-out: affinity, rat heart TSPO assay; cited from earlier work
[4] = target: T1, TSPO A147T (Homo sapiens, UniProt P30536); experiment: Radioligand ([^3H]1) displacement binding on membranes of HEK cells stably transfected with A147T TSPO
T1 construct: expressed in transfected cells; host or cells: HEK cells, stably transfected; membranes
T1 sequence (P30536 whole entry, stated change not applied): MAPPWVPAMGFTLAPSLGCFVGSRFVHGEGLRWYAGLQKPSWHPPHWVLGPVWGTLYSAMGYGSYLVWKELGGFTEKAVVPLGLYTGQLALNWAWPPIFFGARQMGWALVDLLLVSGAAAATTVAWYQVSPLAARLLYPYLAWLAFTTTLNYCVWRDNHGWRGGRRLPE
Procedure: as §1

[5] = target: T2, human TSPO wild‐type (Homo sapiens, UniProt P30536); experiment: Radioligand ([^3H]1) displacement binding on membranes of HEK cells stably transfected with wild-type TSPO; settings: HEK cell membranes, [^3H]1 10 nM, 4 °C, 90 min; mean±SEM, n=3; read-out: Ki (nM) at WT (Ala/Ala) HAB
T2 construct: expressed in transfected cells; host or cells: HEK cells, stably transfected; membranes
T2 sequence (P30536 whole entry T147A): as the sequence (P30536 whole entry, stated change not applied) above, with T147A counted along it
Procedure: Binding affinities were measured as per our published protocol.21 Briefly, an Ultra‐Turrax homogeniser was used to prepare membranes from HEK cells stably transfected with wild‐type and A147T TSPO. […] Reactions were terminated by filtration through a 96‐well glass‐fibre filter plate (Millipore), and washed eight times with ice‐cold 50 mM Tris⋅HCl. Microscint 0 was added to the dry filters, and radioactivity read in a Microbeta^2 2450 Microplate Counter (PerkinElmer). Data were analysed using GraphPad Prism 6.0, and a four‐parameter nonlinear regression curve fit was used to calculate K i values. Data are expressed as the mean±SEM from at least three independent experiments.

[6] = design: method as in PMID 26697963, PMID 26551697, PMID 29114179; settings: cited from earlier work
[7] = tested on: TSPO; settings: cited from earlier work
[8] = tested on: TSPO A147T; design: method as in PMID 30108706; settings: cited from earlier work
[9] = tested on: TSPO; design: method as in PMID 22244939; settings: rats; cited from earlier work

With CCN(Cc1ccccc1)C(=O)C1CCCc2c1c1c(OC)cccc1n2CCF (racemic) [compound 6, N ‐Benzyl‐N‐ethyl‐9‐(2‐fluoroethyl)‐5‐methoxy‐2,3,4,9‐tetrahydro‐1H‐carbazole‐4‐carboxamide] as the compound, how does the “sensitivity to the human gene polymorphism rs6971” value ([1]; conclusion from wild-type versus A147T binding) read?
Its value is “low sensitivity”.

Which “entry of radioactivity into the brain (PET)” value [2] does the source give for CCN(Cc1ccccc1)C(=O)C1CCCc2c1c1c(OC)cccc1n2CC[18F] (racemic) [racemic [^18F]6] here?
The value was “enters the brain”.

With CCN(Cc1ccccc1)C(=O)[C@@H]1CCCc2c1c1c(OC)cccc1n2CCF [(R)-6, N ‐Benzyl‐N‐ethyl‐9‐(2‐fluoroethyl)‐5‐methoxy‐2,3,4,9‐tetrahydro‐1H‐carbazole‐4‐carboxamide] as the compound, how does the Ki [3] read?
Its Ki is 0.022 µM.

What does the source list for CCN(CC)C(=O)[C@H]1CCCc2c1c1c(OC)cccc1n2CCF [(S)-5]?
Ki ([4]; HEK cell membranes, [^3H]1 10 nM, 4 °C, 90 min, mean±SEM, n=3, read-out: Ki (nM) at Ala147Thr LAB): 58.3 ± 6.4 nM; Ratio LAB/HAB [1]: 5.1; Ki [5]: 11.3 ± 0.6 nM

With CCN(Cc1ccccc1)C(=O)[C@H]1CCCc2c1c1c(OC)cccc1n2CCF [(S)-6, N ‐Benzyl‐N‐ethyl‐9‐(2‐fluoroethyl)‐5‐methoxy‐2,3,4,9‐tetrahydro‐1H‐carbazole‐4‐carboxamide] as the compound, how does the Ki [4] read?
Its Ki is 47.3 ± 7 nM.

And the “Ratio LAB/HAB” value [1]?
Its value is 1.3.

What about the Ki [3] of the same compound?
The Ki was 0.00104 µM.

What about the Ki [5] of the same compound?
The Ki was 36.3 ± 6.9 nM.

With CC[C@@H](C)N(C)C(=O)c1cc2ccccc2c(-c2ccccc2Cl)n1 [[^11C]1, R‐1‐(2‐chlorophenyl)‐N‐methyl‐N‐(1‐methylpropyl)‐3‐isoquinoline carboxamide] as the compound, how does the brain permeability [6] read?
Its brain permeability is “low brain permeability”.

For CC[C@@H](C)N(C)C(=O)c1cc2ccccc2c(-c2ccccc2Cl)n1 [[^11C]1] [R‐1‐(2‐chlorophenyl)‐N‐methyl‐N‐(1‐methylpropyl)‐3‐isoquinoline carboxamide], which “affinity for TSPO” value ([7]; selective antagonist of TSPO) is on record?
The value was 9.3 nM.

With CCN(CC)C(=O)C1CCCc2c1c1c(OC)cccc1n2CC[18F] (stereo not shown) [[^18F]5] as the compound, how does the “affinity for TSPO (in words)” value [7] read?
The value was “good affinity”.

What about the “binding affinity ratio LABs/HABs” value [8] of the same compound?
Its value is 5.1.

And the brain uptake [9]?
Its brain uptake is “good brain uptake”.

What about the specific binding [9] of the same compound?
Its specific binding is “high specific binding”.
